# Patent publication US9187472B2 (AbbVie Inc., priority 2012, dated 2015)
# Legend:
# PC3 cells = assay: NAMPT Cell Proliferation Assay; format: cell-based; settings: Homo sapiens, PC-3, 120 h, 5 days incubation, cell viability by Cell Titer Glo
# Summary of the method: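 IC50 values derive from sigmoidal dose-response fits of percent inhibition of PC3 viability, measured by luminescence after 5 days of compound treatment. Cells (500/well, RPMI containing 10% heat-inactivated FBS) are allowed to attach overnight, and compounds are tested at 10-fold dilutions between 10 μM and 1×10^−5 μM.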
# NAMPT = NAMPT (Homo sapiens, UniProt P43490); assay: TR-FRET Binding Assay of NAMPT with PRPP; settings: with 200 μM PRPP and 2.5 mM ATP; 2 nM NAMPT, 2 nM probe, 16 hours equilibration
# Sequence of NAMPT (P43490 whole entry): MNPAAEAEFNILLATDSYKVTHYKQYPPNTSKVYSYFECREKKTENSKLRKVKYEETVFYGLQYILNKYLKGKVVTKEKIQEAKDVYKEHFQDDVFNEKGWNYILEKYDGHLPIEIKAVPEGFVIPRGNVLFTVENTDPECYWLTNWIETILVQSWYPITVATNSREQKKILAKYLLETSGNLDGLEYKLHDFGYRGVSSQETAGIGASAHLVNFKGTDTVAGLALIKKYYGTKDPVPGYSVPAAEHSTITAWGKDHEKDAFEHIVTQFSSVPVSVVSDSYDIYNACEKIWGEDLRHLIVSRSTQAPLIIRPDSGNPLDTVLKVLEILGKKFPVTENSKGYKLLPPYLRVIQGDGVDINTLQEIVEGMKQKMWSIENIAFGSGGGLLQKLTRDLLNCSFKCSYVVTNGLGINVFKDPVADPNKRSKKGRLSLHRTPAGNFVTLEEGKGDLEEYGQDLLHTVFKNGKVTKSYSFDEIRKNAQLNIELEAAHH
# Summary of the method: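 NAMPT 2 nM + probe 2 nM + Tb-anti-His Ab 1 nM; PRPP 200 μM, ATP 2.5 mM, DMSO 2%; 16 h equilibration before TR-FRET read.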
# [1] = target: NAMPT (human, recombinant, C-terminally His-tagged) (Homo sapiens, UniProt P43490); assay: Time-Resolved Fluorescence Resonance Energy Transfer (TR-FRET) Binding Assay of NAMPT; settings: without substrates; 6.8 nM NAMPT, 200 nM probe, 3 hours equilibration
# Sequence of NAMPT (human, recombinant, C-terminally His-tagged) (P43490 whole entry): as above
# Summary of the method: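 Read-out is the time-resolved FRET ratio Em520/Em495 (excitation 337 nm) between a terbium anti-His antibody (1 nM) on the enzyme and an Oregon Green 488-labelled nicotinamide-competitive inhibitor probe (200 nM). Enzyme was 6.8 nM, DMSO 2%, pH 7.5 HEPES buffer; 3 h room-temperature equilibration preceded reading.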
Structure (SMILES),IC50 (PC3 cells) [nM],IC50 (NAMPT) [nM],IC50 [1] [nM]
"O=C(NCc1ccn2ccnc2c1)c1ccc(C2CCN(C(=O)Cc3cccc(F)c3)C2)s1 (stereo not drawn) [Example 761, 5-{1-[(3-fluorophenyl)acetyl]pyrrolidin-3-yl}-N-(imidazo[1,2-a]pyridin-7-ylmethyl)thiophene-2-carboxamide]",27.7,0.394,94.4
"O=C(NCc1ccn2ccnc2c1)c1ccc(C2CCN(C(=O)Cc3cc(F)cc(F)c3)C2)s1 (stereo not drawn) [Example 764, 5-{1[(3,5-difluorophenyl)acetyl]pyrrolidin-3-yl}-N-(imidazo[1,2-a]pyridin-7-ylmethyl)thiophene-2-carboxamide]",68.7,0.465,135
"O=C(NCc1ccn2ccnc2c1)c1ccc(C2CCN(C(=O)Cc3ccccc3F)C2)s1 (stereo not drawn) [Example 765, 5-{1-[(2-fluorophenyl)acetyl]pyrrolidin-3-yl}-N-(imidazo[1,2-a]pyridin-7-ylmethyl)thiophene-2-carboxamide]",2.91,0.782,36.5
"N#Cc1ccc(C(=O)N2CCC(c3ccc(C(=O)NCc4ccn5ccnc5c4)s3)C2)cc1 (stereo not drawn) [Example 766, 5-[1-(4-cyanobenzoyl)pyrrolidin-3-yl]-N-(imidazo[1,2-a]pyridin-7-ylmethyl)thiophene-2-carboxamide]",6.36,0.581,61.5
"CC1(C(=O)N2CCC(c3ccc(C(=O)NCc4ccn5ccnc5c4)s3)C2)COC1 (stereo not drawn) [Example 767, N-(imidazo[1,2-a]pyridin-7-ylmethyl)-5-{1-[(3-methyloxetan-3-yl)carbonyl]pyrrolidin-3-yl}thiophene-2-carboxamide]",67.2,0.64,265
"O=C(NCc1ccn2ccnc2c1)c1ccc(C2CCN(C(=O)c3cc(F)cc(F)c3)C2)s1 (stereo not drawn) [Example 768, 5-[1-(3,5-difluorobenzoyl)pyrrolidin-3-yl]-N-(imidazo[1,2-a]pyridin-7-ylmethyl)thiophene-2-carboxamide]",0.905,0.672,28.1
"O=C(NCc1ccn2ccnc2c1)c1ccc(C2CCN(C(=O)C3CCCC3)C2)s1 (stereo not drawn) [Example 769, 5-[1-(cyclopentylcarbonyl)pyrrolidin-3-yl]-N-(imidazo[1,2-a]pyridin-7-ylmethyl)thiophene-2-carboxamide]",5.26,0.705,98.4
"O=C(NCc1ccn2ccnc2c1)c1ccc(C2CCN(C(=O)c3ccc(F)cc3F)C2)s1 (stereo not drawn) [Example 772, 5-[1-(2,4-difluorobenzoyl)pyrrolidin-3-yl]-N-(imidazo[1,2-a]pyridin-7-ylmethyl)thiophene-2-carboxamide]",2.4,0.828,61.5
"CC/C=C(\C)C(=O)N1CCC(c2ccc(C(=O)NCc3ccn4ccnc4c3)s2)C1 (stereo not drawn) [Example 777, N-(imidazo[1,2-a]pyridin-7-ylmethyl)-5-{1-[(2E)-2-methylpent-2-enoyl]pyrrolidin-3-yl}thiophene-2-carboxamide]",1.26,0.92,39.4
"Cc1cc(C(=O)N2CCC(c3ccc(C(=O)NCc4ccn5ccnc5c4)s3)C2)c(C)o1 (stereo not drawn) [Example 778, 5-{1-[(2,5-dimethylfuran-3-yl)carbonyl]pyrrolidin-3-yl}-N-(imidazo[1,2-a]pyridin-7-ylmethyl)thiophene-2-carboxamide]",0.896,0.414,27.6
"N#CC1(C(=O)N2CCC(c3ccc(C(=O)NCc4ccn5ccnc5c4)s3)C2)CC1 (stereo not drawn) [Example 781, 5-{1-[(1-cyanocyclopropyl)carbonyl]pyrrolidin-3-yl}-N-(imidazo[1,2-a]pyridin-7-ylmethyl)thiophene-2-carboxamide]",7.27,0.839,87.5
"CCCC(=O)N1CCC(c2ccc(C(=O)NCc3ccn4ccnc4c3)s2)C1 (stereo not drawn) [Example 782, 5-(1-butanoylpyrrolidin-3-yl)-N-(imidazo[1,2-a]pyridin-7-ylmethyl)thiophene-2-carboxamide]",24.7,0.466,134

# Results, then the compound that gave them:
IC50 (PC3 cells) [nM],IC50 (NAMPT) [nM],IC50 [1] [nM],Structure (SMILES)
1.65,0.799,28.5,"COc1cccc(C(=O)N2CCC(c3ccc(C(=O)NCc4ccn5ccnc5c4)s3)C2)c1 (stereo not drawn) [Example 759, N-(imidazo[1,2-a]pyridin-7-ylmethyl)-5-[1-(3-methoxybenzoyl)pyrrolidin-3-yl]thiophene-2-carboxamide]"
1.19,0.71,28.9,"COc1ccccc1C(=O)N1CCC(c2ccc(C(=O)NCc3ccn4ccnc4c3)s2)C1 (stereo not drawn) [Example 760, N-(imidazo[1,2-a]pyridin-7-ylmethyl)-5-[1-(2-methoxybenzoyl)pyrrolidin-3-yl]thiophene-2-carboxamide]"
1.12,0.506,30.1,"O=C(NCc1ccn2ccnc2c1)c1ccc(C2CCN(C(=O)c3cccc(F)c3)C2)s1 (stereo not drawn) [Example 762, 5-[1-(3-fluorobenzoyl)pyrrolidin-3-yl]-N-(imidazo[1,2-a]pyridin-7-ylmethyl)thiophene-2-carboxamide]"
2.31,0.478,48.5,"O=C(NCc1ccn2ccnc2c1)c1ccc(C2CCN(C(=O)c3ccc(F)cc3)C2)s1 (stereo not drawn) [Example 763, 5-[1-(4-fluorobenzoyl)pyrrolidin-3-yl]-N-(imidazo[1,2-a]pyridin-7-ylmethyl)thiophene-2-carboxamide]"
6,0.735,38.8,"O=C(NCc1ccn2ccnc2c1)c1ccc(C2CCN(C(=O)c3ccc(Cl)cc3)C2)s1 (stereo not drawn) [Example 770, 5-[1-(4-chlorobenzoyl)pyrrolidin-3-yl]-N-(imidazo[1,2-a]pyridin-7-ylmethyl)thiophene-2-carboxamide]"
3.47,0.573,70.8,"Cn1cccc1C(=O)N1CCC(c2ccc(C(=O)NCc3ccn4ccnc4c3)s2)C1 (stereo not drawn) [Example 771, N-(imidazo[1,2-a]pyridin-7-ylmethyl)-5-{1-[(1-methyl-1H-pyrrol-2-yl)carbonyl]pyrrolidin-3-yl}thiophene-2-carboxamide]"
9.53,0.773,72.6,"O=C(NCc1ccn2ccnc2c1)c1ccc(C2CCN(C(=O)c3ccncc3)C2)s1 (stereo not drawn) [Example 773, N-(imidazo[1,2-a]pyridin-7-ylmethyl)-5-[1-(pyridin-4-ylcarbonyl)pyrrolidin-3-yl]thiophene-2-carboxamide]"
7.07,0.46,103,"O=C(NCc1ccn2ccnc2c1)c1ccc(C2CCN(C(=O)c3ccccn3)C2)s1 (stereo not drawn) [Example 774, N-(imidazo[1,2-a]pyridin-7-ylmethyl)-5-[1-(pyridin-2-ylcarbonyl)pyrrolidin-3-yl]thiophene-2-carboxamide]"
60.9,0.538,51.9,"Cn1cc(C(=O)N2CCC(c3ccc(C(=O)NCc4ccn5ccnc5c4)s3)C2)cn1 (stereo not drawn) [Example 775, N-(imidazo[1,2-a]pyridin-7-ylmethyl)-5-{1-[(1-methyl-1H-pyrazol-4-yl)carbonyl]pyrrolidin-3-yl}thiophene-2-carboxamide]"
2.1,0.169,21.5,"O=C(NCc1ccn2ccnc2c1)c1ccc(C2CCN(C(=O)c3ccccc3F)C2)s1 (stereo not drawn) [Example 776, 5-[1-(2-fluorobenzoyl)pyrrolidin-3-yl]-N-(imidazo[1,2-a]pyridin-7-ylmethyl)thiophene-2-carboxamide]"
0.499,0.603,14.2,"O=C(NCc1ccn2ccnc2c1)c1ccc(C2CCN(C(=O)c3cccc(Cl)c3)C2)s1 (stereo not drawn) [Example 779, 5-[1-(3-chlorobenzoyl)pyrrolidin-3-yl]-N-(imidazo[1,2-a]pyridin-7-ylmethyl)thiophene-2-carboxamide]"
81.7,0.382,250,"CCC(=O)N1CCC(c2ccc(C(=O)NCc3ccn4ccnc4c3)s2)C1 (stereo not drawn) [Example 780, N-(imidazo[1,2-a]pyridin-7-ylmethyl)-5-(1-propanoylpyrrolidin-3-yl)thiophene-2-carboxamide]"
9.8,0.907,64.4,"O=C(NCc1ccn2ccnc2c1)c1ccc(C2CCN(C(=O)c3ccco3)C2)s1 (stereo not drawn) [Example 783, 5-[1-(furan-2-ylcarbonyl)pyrrolidin-3-yl]-N-(imidazo[1,2-a]pyridin-7-ylmethyl)thiophene-2-carboxamide]"
2.38,0.455,22.6,"COc1ccc(C(=O)N2CCC(c3ccc(C(=O)NCc4ccn5ccnc5c4)s3)C2)cc1 (stereo not drawn) [Example 784, N-(imidazo[1,2-a]pyridin-7-ylmethyl)-5-[1-(4-methoxybenzoyl)pyrrolidin-3-yl]thiophene-2-carboxamide]"
0.839,0.638,23.6,"O=C(NCc1ccn2ccnc2c1)c1ccc(C2CCN(C(=O)c3cc(F)ccc3F)C2)s1 (stereo not drawn) [Example 785, 5-[1-(2,5-difluorobenzoyl)pyrrolidin-3-yl]-N-(imidazo[1,2-a]pyridin-7-ylmethyl)thiophene-2-carboxamide]"
